One data set has as its system H9-MSCs. Briefly: MSC vial freezing, post-thaw recovery and two-hour attachment (Example 5). The conditions noted are these: DMSO, room temperature pre-freeze incubation; 1° C./min; FIG. 21C. Format: cell-based, human. How it is done: Optimized solutions were prepared at double (2×) the final freezing concentration and added stepwise to cells in NORMOSOL-R (Hospira, Inc., Lake Forest, Ill.) at a 1:1 final volume ratio in a freezing vial (NALGENE, Nalge Nunc, Penfield, N.Y.). Control cells in media were similarly combined stepwise with DMSO at a 1:1 final volume ratio. Each of these vials was incubated at room temperature for 0 hours, one hour, or two hours. Experimental solutions were frozen using a 3° C./min cooling rate protocol described below, while DMSO solutions were frozen using a 1° C./min cooling rate protocol on a controlled rate freezer (Kryo 10 Series III, Planer PLC, Middlesex, United Kingdom). […]
Samples were submerged in a 37° C. bath to just under cap level, and agitated until only a small ice crystal was present. The cells were combined with acridine orange/propidium iodide (AO/PI) and counted using a hemocytometer. […]
Cell attachment of samples post-thaw was measured using a fluorescent plate reader. […] After two hours or 24 hours, these paired plates were washed with PBS, 1 μM calcein-acetoxymethyl (AM) dye was added, and then analyzed for fluorescence on a plate reader. Raw fluorescence values were used to calculate the number of live cells present in each well by correlating to a control curve of cells seeded at known densities. […]

For data set [1], the system named is MSCs (CD73, CD90, CD105, CD45). In words: Surface marker characterization by flow cytometry. Format: cell-based, human. The conditions noted are these: frozen MSCs. An excerpt:
Cells were suspended to a concentration of 1×10^6 cells/ml in media and stained with a panel of the following antibodies: mouse IgG1 anti-human CD73 (APC-conjugated, BD Biosciences, San Jose, Calif., clone AD2), mouse IgG1 anti-human CD90 (FITC-conjugate, clone 5E10, Molecular Probes, Eugene, Oreg.), mouse IgG1 anti-human CD105 (PE-conjugated, R&D Systems, Inc., Minneapolis, Minn. clone 166707) and mouse IgG1 anti-human CD45 (BV421-conjugated, clone HI30, BD Biosciences, San Jose, Calif.). Cells were incubated with antibodies for 30 minutes at 4° C. Flow cytometry was performed on a flow cytometer (LSR II, BD Biosciences, San Jose, Calif.) at low flow rate with the fine adjust knob five turns from max. At least 15,000 events were recorded for each sample. Cell populations were gated for forward and side scatter compared to unstained MSCs and CD45 expressing Jurkat cells as, respectively, negative and positive controls to establish boundaries for fluorescent signals.
(In general: Flow cytometry measures light scatter and fluorescence of single cells or particles in a stream.)

A further data set has as its system Jurkat cells. In words: Raman microscopy cell penetration study of cryoprotectants. Format: cell-based. The conditions noted are these: Raman microscopy, at room temperature and at freezing temperatures. How it is done: Raman microscopy data provides an indication of the location of action of each cryopreservative. The images in FIG. 12 show Jurkat cells frozen in either glycerol (penetrating) or trehalose (non-penetrating).
These experiments were performed for most of the components described in the sections above both at room temperature and at freezing temperatures to assess whether penetration was temperature dependent.
Confocal Raman Microspectroscopy (CRM) measurements are conducted using Witec Confocal Raman Microscope System Alpha 300R (WITec, Wissenschaftliche Instrumente und Technologie GmbH, Ulm, Germany) with UHTS300 spectrometer and DV401 CCD detector. A wavelength of 532 nm Nd:YAG laser and 10 mW of power is used as excitation source. The laser is transferred to the microscopy in a singer fiber. A 100× air objective (NA 0.90; Nikon Instruments, Melville, N.Y.) is used for focusing the 532 nm excitation laser to the sample. Data collection and analysis are performed by Windows-based WitecControl_1.38 software.

Take `C[S+](C)[O-]` [DMSO, dimethyl sulfoxide]: in the data set on H9-MSCs, the “attachment of cells, effect of incubation prior to freezing” value is “significantly reduced” and the “cell recovery, effect of incubation prior to freezing” value was “did not alter”. For the same molecule, in data set [1], the “expression of negative surface marker CD45” value is listed as below 1% and the “expression of positive surface markers CD73, CD90, CD105” value is above 99%.

Regarding `OC[C@H]1O[C@@](CO)(O[C@H]2O[C@H](CO)[C@@H](O)[C@H](O)[C@H]2O)[C@@H](O)[C@@H]1O` [Sucrose], the Penetration entry with Jurkat cells is on record as “Yes”.
